Assay results: ChEMBL document CHEMBL1649492, “Population modeling and Monte Carlo simulation study of the pharmacokinetics and antituberculosis pharmacodynamics of rifampin in lungs” (Antimicrob Agents Chemother, 2009)
Where “and” joins values, the source holds several entries; their conditions need not be identical. Identical values can stand only once.

What was measured:
[1] = Ratio of AUC (0 to 24 hrs) to MIC in plasma of patient with Mycobacterium tuberculosis infection at […], po administered as single dose; assay type: functional
[2] = Ratio of AUC (0 to 24 hrs) to MIC in epithelial lining fluid of patient with Mycobacterium tuberculosis infection at […], po administered as single dose; assay type: functional
[3] = Volume of distribution in alveolar cells of patient with tuberculosis at […], po administered as single dose; assay type: ADME, organism-based, Pneumocyte; set-up: route oral; conditions: human, in vivo
[4] = system: Homo sapiens; experiment: Volume of distribution in patient with tuberculosis at […], po administered as single dose; assay type: ADME, organism-based; set-up: route oral; conditions: in vivo
[5] = Volume of distribution in epithelial lining fluid of patient with tuberculosis at […], po administered as single dose; assay type: ADME, organism-based; set-up: route oral; conditions: human, in vivo

CO[C@H]1/C=C/O[C@@]2(C)Oc3c(C)c(O)c4c(O)c(c(/C=N/N5CCN(C)CC5)c(O)c4c3C2=O)NC(=O)/C(C)=C\C=C\[C@H](C)[C@H](O)[C@@H](C)[C@@H](O)[C@@H](C)[C@H](OC(C)=O)[C@@H]1C [RIFAMPIN]
RatioAUC/MIC [1]: >=271
RatioAUC/MIC [2]: >=665
Vd [3]: 49.94 L and 43.66 L and 33.65 L
Vd [4]: 11.56 L and 10.16 L and 8.05 L
Vd [5]: 102.6 L and 102.8 L and 52.1 L
